Measured values from patent US10519099B2, “Cystobactamides” (priority 2014, dated 2019).
Values after ≈ are worked out from the molar mass of the structure shown. Positions of bridges follow the written chain, without caps; N, C: chain ends. Non-standard residues stand in square brackets, D forms with d. Residues, ends and D or L forms follow the SMILES beside them. *: point of attachment. Ileψ(thiazoline)Cys = CC[C@H](C)[C@H](N)C1=N[C@H](C(=O)*)CS1; dOrn = NCCC[C@@H](N)C(=O)O

Tests used:
E. coli DSM-1116 = test: MIC microdilution, E. coli DSM-1116; format: cell-based, Escherichia coli; details: Escherichia coli, DSM1116; Gram-negative set; read-out: MIC E. coli DSM-1116
Experimental: (§1) Indicator strains used in susceptibility assays were either part of our strain collection or purchased from the German Collection of Microorgansims and Cell Cultures (DSMZ) or from the American Type Culture Collection (ATCC). E. coli strain WT and corresponding E. coli mutants were kindly provided by Prof. Dr. P. Heisig, Pharmaceutical Biology and Microbiology, University of Hamburg. E. coli strains JW0401-1 (WT) and Δtsx were obtained from the CGSC collection.
(§2) MIC values were determined in standardized microdilution assays. Overnight cultures were diluted in the appropriate growth medium to achieve an inoculum of 10^4-10^6 cfu/mL. Yeasts were grown in Myc medium (1% phytone peptone, 1% glucose, 50 mM HEPES, pH 7.0), S. pneumonia and Enterococcus spp. in tryptic soy broth (TSB: 1.7% peptone casein, 0.3% peptone soymeal, 0.25% glucose, 0.5% NaCl, 0.25% K2HPO4; pH 7.3); M. smegmatis in Middlebrook 7H9 medium supplemented with 10% Middlebrook ADC enrichment and 2 ml/I glycerol). All other listed bacteria were grown in Müller-Hinton broth (0.2% beef infusion solids, 1.75% casein hydrolysate, 0.15% starch, pH 7.4). Cystobactamides and reference drugs were added directly to the cultures in sterile 96-well plates as duplicates and serial dilutions were prepared. Microorganisms were grown on a microplate shaker (750 rpm, 30-37° C., 18-48 h), except S. pneumonia, which was grown at non-shaking conditions (37° C., 5% CO2, 18 h). Growth inhibition was assessed by visual inspection and the MIC was defined as the lowest concentration of compound that inhibited visible growth.

[1] = system: E. coli WT-III [marRΔ74bp]; test: MIC microdilution, E. coli WT-III [marRΔ74bp]; format: cell-based, Escherichia coli; details: Gram-negative set
Experimental: as §1, §2

[2] = system: E. coli DSM-26863 (tolC3); test: MIC microdilution, E. coli DSM-26863 (tolC3); format: cell-based, Escherichia coli; details: Escherichia coli, DSM26863, read-out: MIC E. coli DSM-26863 (tolC3)
Experimental: as §1, §2

[3] = system: Citrobacter freundii DSM-30039; test: MIC microdilution, C. freundii DSM-30039; format: cell-based; details: Citrobacter freundii, DSM30039; Gram-negative set; read-out: MIC C. freundii DSM-30039
Experimental: as §1, §2

[4] = system: E. coli WT-3 [gyrA(S83L, D87G)]; test: MIC microdilution, E. coli WT-3 [gyrA(S83L, D87G)]; format: cell-based, Escherichia coli; details: Escherichia coli, read-out: MIC E. coli WT-3 [gyrA(S83L, D87G)]
Experimental: as §1, §2

E. coli WT = test: MIC microdilution, E. coli WT; format: cell-based, Escherichia coli; details: Escherichia coli; Gram-negative set; read-out: MIC E. coli WT
Experimental: as §1, §2

[5] = system: P. aeruginosa DSM-24600 (ESBL); test: MIC microdilution, P. aeruginosa DSM-24600 (ESBL); format: cell-based, Pseudomonas aeruginosa; details: Pseudomonas aeruginosa, DSM24600; Gram-negative set; read-out: MIC P. aeruginosa DSM-24600 (ESBL)
Experimental: as §1, §2

[6] = system: Proteus vulgaris DSM-2140; test: MIC microdilution, P. vulgaris DSM-2140; format: cell-based; details: Proteus vulgaris, DSM2140; Gram-negative set; read-out: MIC P. vulgaris DSM-2140
Experimental: as §1, §2

[7] = system: Acinetobacter baumannii DSM-30008; test: MIC microdilution, A. baumannii DSM-30008; format: cell-based; details: Acinetobacter baumannii, DSM30008; Gram-negative set; read-out: MIC A. baumannii DSM-30008
Experimental: as §1, §2

[8] = system: Cystobacter velatus MCy8071; test: Antibiotic resistance of producer strain MCy8071; format: cell-based; details: final concentration 50 μg ml^−1
Experimental: MCy8071 is resistant against the following antibiotics: ampicillin, gentamycin, hygromycin, polymycin, bacitracin, spectinomycin, neomycin, and fusidinic acid. Weak growth is possible with cephalosporin and kasugamycin and no growth is possible with thiostrepton, trimethoprin, kanamycin, and oxytetracycline (final concentration of all antibiotics was adjusted to 50 μg ml^−1).

**Q.** `CCOc1cc(C(=O)O)ccc1NC(=O)c1ccc(NC(=O)c2ccc(NC(=O)C(NC(=O)c3ccc(NC(=O)c4ccc([N+](=O)[O-])cc4)cc3)C(OC)C(N)=O)cc2)c(OC(C)C)c1O` (stereo not shown) [Cys 905-2] was tested. Which MIC (E. coli DSM-1116) did it give?
**A.** 8 µg/mL (≈ 8.83 µM)

**Q.** What about the “MIC E. coli WT-III [marRΔ74bp]” value [1] of the same molecule?
**A.** >64 µg/mL

**Q.** And the MIC [2]?
**A.** 2 µg/mL (≈ 2.21 µM)

**Q.** And the MIC [3]?
**A.** 8 µg/mL (≈ 8.83 µM)

**Q.** What about the MIC [4] of the same molecule?
**A.** > 64 µg/mL

**Q.** And the MIC (E. coli WT)?
**A.** 4 µg/mL (≈ 4.42 µM)

**Q.** What about the MIC [5] of the same molecule?
**A.** > 64 µg/mL

**Q.** And the MIC [6]?
**A.** 32 µg/mL (≈ 35.3 µM)

**Q.** What about the MIC [7] of the same molecule?
**A.** 64 µg/mL (≈ 70.7 µM)

**Q.** For `COC(C(=O)O)C(NC(=O)c1ccc(NC(=O)c2ccc([N+](=O)[O-])cc2)cc1)C(=O)Nc1ccc(C(=O)Nc2ccc(C(=O)Nc3ccc(C(=O)O)cc3OC(C)C)c(O)c2OC(C)C)cc1` (stereo not shown) [Cys 920-1], which MIC (E. coli DSM-1116) is on record?
**A.** > 64 µg/mL

**Q.** And the “MIC E. coli WT-III [marRΔ74bp]” value [1]?
**A.** >64 µg/mL

**Q.** And the MIC [2]?
**A.** 64 µg/mL (≈ 69.5 µM)

**Q.** And the MIC [3]?
**A.** > 64 µg/mL

**Q.** What about the MIC [4] of the same molecule?
**A.** > 64 µg/mL

**Q.** What about the MIC (E. coli WT) of the same molecule?
**A.** > 64 µg/mL

**Q.** What about the MIC [5] of the same molecule?
**A.** > 64 µg/mL

**Q.** And the MIC [6]?
**A.** > 64 µg/mL

**Q.** And the MIC [7]?
**A.** > 64 µg/mL

**Q.** With `CCC(C)Oc1cc(C(=O)O)ccc1NC(=O)c1ccc(NC(=O)c2ccc(NC(=O)C(OC)C(NC(=O)c3ccc(NC(=O)c4ccc([N+](=O)[O-])cc4)cc3)C(=O)O)cc2)c(OC(C)C)c1O` (stereo not shown) [Cys 934-2] as the molecule, how does the MIC (E. coli DSM-1116) read?
**A.** > 64 µg/mL

**Q.** And the “MIC E. coli WT-III [marRΔ74bp]” value [1]?
**A.** >64 µg/mL

**Q.** What about the MIC [2] of the same molecule?
**A.** 32 µg/mL (≈ 34.2 µM)

**Q.** What about the MIC [3] of the same molecule?
**A.** > 64 µg/mL

**Q.** And the MIC [4]?
**A.** > 64 µg/mL

**Q.** And the MIC (E. coli WT)?
**A.** > 64 µg/mL

**Q.** What about the MIC [5] of the same molecule?
**A.** > 64 µg/mL

**Q.** What about the MIC [6] of the same molecule?
**A.** > 64 µg/mL

**Q.** What about the MIC [7] of the same molecule?
**A.** > 64 µg/mL

**Q.** What does the source list for `COC(C(N)=O)C(NC(=O)c1ccc(NC(=O)c2ccc([N+](=O)[O-])cc2)cc1)C(=O)Nc1ccc(C(=O)Nc2ccc(C(=O)Nc3ccc(C(=O)O)c(O)c3OC(C)C)c(O)c2OC(C)C)cc1` (stereo not shown) [Cys 935-2]?
**A.** MIC (E. coli DSM-1116): 0.5 µg/mL (≈ 0.534 µM); MIC E. coli WT-III [marRΔ74bp] [1]: 2 µg/mL (≈ 2.14 µM); MIC [2]: 0.25 µg/mL (≈ 0.267 µM); MIC [3]: 1 µg/mL (≈ 1.07 µM); MIC [4]: 2 µg/mL (≈ 2.14 µM); MIC (E. coli WT): 0.5 µg/mL (≈ 0.534 µM); MIC [5]: 8 µg/mL (≈ 8.55 µM); MIC [6]: 1 µg/mL (≈ 1.07 µM); MIC [7]: 2 µg/mL (≈ 2.14 µM)

**Q.** For `CC1(C)S[C@@H]2[C@H](NC(=O)[C@H](N)c3ccccc3)C(=O)N2[C@H]1C(=O)O` [ampicillin], which “growth of strain MCy8071 in presence of antibiotic” value (from here on “growth of strain MCy8071”) [8] is on record?
**A.** resistant

**Q.** `CC[C@H](C)[C@H](N)C1=N[C@H](C(=O)N[C@@H](CC(C)C)C(=O)N[C@H](CCC(=O)O)C(=O)N[C@H](C(=O)N[C@H]2CCCCNC(=O)[C@H](CC(N)=O)NC(=O)[C@@H](CC(=O)O)NC(=O)[C@H](Cc3cnc[nH]3)NC(=O)[C@@H](Cc3ccccc3)NC(=O)[C@H]([C@@H](C)CC)NC(=O)[C@@H](CCCN)NC2=O)[C@@H](C)CC)CS1` [bacitracin] ({Ileψ(thiazoline)Cys}-L[dE]IK[dOrn]I[dF]H[dD]N; lactam 4-C) was tested. Which “growth of strain MCy8071” value [8] did it give?
**A.** resistant

**Q.** `CC(=O)O[C@H]1C[C@@]2(C)[C@@H](C[C@@H](O)[C@H]3[C@@]4(C)CC[C@@H](O)[C@@H](C)[C@@H]4CC[C@@]32C)/C1=C(\CCC=C(C)C)C(=O)O` [fusidinic acid] was tested. Which “growth of strain MCy8071” value [8] did it give?
**A.** resistant

**Q.** How did the “growth of strain MCy8071” value [8] turn out when `C[C@H]1O[C@H](O[C@H]2[C@H](O)[C@@H](O)[C@@H](O)[C@H](O)[C@@H]2O)[C@@H](N)C[C@@H]1NC(=N)C(=O)O` [kasugamycin] was run?
**A.** Weak growth

**Q.** Which “growth of strain MCy8071” value [8] does the source give for `CN[C@@H]1[C@H](O)[C@H](NC)[C@H]2O[C@@]3(O)C(=O)C[C@@H](C)O[C@H]3O[C@@H]2[C@H]1O` [spectinomycin] here?
**A.** resistant

**Q.** With `C=C(NC(=O)C(=C)NC(=O)c1csc(C2=N[C@@H]3c4csc(n4)[C@H]4NC(=O)c5csc(n5)[C@H]([C@](C)(O)[C@@H](C)O)NC(=O)[C@H]5CSC(=N5)/C(=C/C)NC(=O)[C@H]([C@@H](C)O)NC(=O)c5csc(n5)[C@]3(CC2)NC(=O)[C@H](C)NC(=O)C(=C)NC(=O)[C@H](C)NC(=O)[C@H]([C@@H](C)CC)N[C@@H]2C=Cc3c([C@H](C)O)cc(nc3[C@H]2O)C(=O)O[C@@H]4C)n1)C(N)=O` [thiostrepton] as the molecule, how does the “growth of strain MCy8071” value [8] read?
**A.** no growth

**Q.** With `COc1cc(Cc2cnc(N)nc2N)cc(OC)c1OC` [trimethoprin] as the molecule, how does the “growth of strain MCy8071” value [8] read?
**A.** no growth

**Q.** With gentamycin as the molecule, how does the “growth of strain MCy8071” value [8] read?
**A.** resistant

**Q.** For neomycin, which “growth of strain MCy8071” value [8] is on record?
**A.** resistant

**Q.** How did the “growth of strain MCy8071” value [8] turn out when polymycin was run?
**A.** resistant
